{
  "source": "patent US20140303092A1",
  "about": "(CHIMERIX, INC., priority 2011, published 2014)",
  "assay": "Study HDP-CDV-201: safety and tolerability (adverse events, laboratory abnormalities, discontinuations)",
  "assay_type": "in vivo, human (adult allogeneic HSCT recipients)",
  "method": "Clinical Studies of HDP-CDV were performed and described in detail in the following Examples. For example, HDP-CDV-201 is a placebo-controlled, dose-escalating trial in HSCT CMV (R+) recipients, evaluating the ability of HDP-CDV to prevent or control CMV infection was carried out. Five cohorts were established in which participants or subjects received either placebo or the HDP-CDV orally, in doses ranging from 40 mg weekly (QW) to 200 mg twice weekly (BIW). Subjects who were post-HSCT were enrolled at the time of engraftment and randomized to HDP-CDV or placebo (3 to 1 ratio) and received blinded therapy until approximately 100 day post-transplantation. HDP-CDV doses were 40 mg QW, 100 mg QW, 200 mg QW, 200 mg BIW and 100 mg BIW. Escalation to the next dose was decided by the data monitoring committee after review of the safety data from the previous Cohort. Subjects who developed CMV disease or CMV infection requiring pre-emptive therapy with local standard of care were discontinued from blinded therapy and followed for 4 weeks. Subjects who completed treatment with blinded therapy were followed for 8 weeks post-therapy.\nData from Study HDP-CDV-201 also provided characterization of the safety and tolerability profile of HDP-CDV when administered for the prevention or control of CMV infection in high risk (R^+) post-HSCT adult subjects.\nThe Safety population (SAFETY) included all randomized subjects who took at least one dose of study treatment. This population was used to summarize safety outcomes based on the treatment actually received, in cases where a subject was treated contrary to the randomization schedule.\nThe safety and tolerability profile of HDP-CDV, including subject demographics and Baseline characteristics; the AE profile; and laboratory abnormalities of interest were analyzed in the cohorts followed in this investigation.\nSubjects completing the treatment period received a full course of study medication; those completing the entire study attended visits through 8 weeks of follow up. Subjects who discontinued treatment may have done so for protocol specified reasons (e.g. development of clinically significant CMV infection requiring preemptive treatment with excluded anti-CMV medications) or for other reasons (e.g., withdrawal, adverse events, loss to follow-up). The disposition of subjects in Study HDP-CDV-201 during the double-blind, placebo-controlled treatment period (through Week 11) is listed by dosing Cohort in TABLE 23.\nAdverse events were examined by severity to ensure that all safety signals were identified in this study population. Because of the frequency of events in HSCT recipients, particular attention was given to evaluation of Grade 3 […], 4 (severe), and 5 (fatal) adverse events.\nOnly those preferred terms for which at least one Grade 3 or higher event was experienced in any treatment group are listed. Cytomegalovirus-related AEs are excluded from this analysis.\nHDP-CDV is a lipid conjugate of CDV. Because CDV is known to have adverse effects on renal function and bone marrow, decreased GFR and persistent neutropenia were identified as AEs of special interest. Key renal and hematological (TABLE 30) laboratory parameters were measured and listed below by Study HDP-CDV-201 treatment groups. TABLE 30 includes abnormal levels of serum creatinine, neutrophils, platelets, WBCs, and hemoglobin and includes data at Screening and during the treatment period.\nA common metric for unit based dosing of medications is by weight (mg/kg). When the distribution of weights was examined for all subjects participating in the study, the median was 78 kg and the lower 25th percentile weight was approximately 65 kg, which translates to a cut-off of ˜3 mg/kg for a 200 mg total weekly dose. Based upon this approach, a cut-off of 3 mg/kg was used to assess the frequency of diarrhea and associated GI AEs reported for the subjects in Cohorts 3 or 4a (TABLE 40).",
  "key": {"[1]": {"details": "Cohort 4A, 100 mg BIW, through Week 11"}},
  "data": [
    {"smiles": "CCCCCCCCCCCCCCCCOCCCOP(=O)(O)COC(CO)Cn1ccc(N)nc1=O", "note": "(stereo not shown) [HDP-CDV]", "values": [
      {"measurement": "TEAE Cytomegalovirus viremia", "setting": "Cohort 4A, 100 mg BIW, N = 50", "result": "6 (12.0%) n (%)"},
      {"measurement": "TEAE Decreased appetite", "setting": "Cohort 4A, 100 mg BIW, N = 50", "result": "9 (18.0%) n (%)"},
      {"measurement": "TEAE Diarrhoea", "setting": "Cohort 4A, 100 mg BIW, N = 50", "result": "26 (52.0%) n (%)"},
      {"measurement": "TEAE Dysgeusia", "setting": "Cohort 4A, 100 mg BIW, N = 50", "result": "4 (8.0%) n (%)"},
      {"measurement": "TEAE Fatigue", "setting": "Cohort 4A, 100 mg BIW, N = 50", "result": "9 (18.0%) n (%)"},
      {"measurement": "TEAE GI Reflux Disease", "setting": "Cohort 4A, 100 mg BIW, N = 50", "result": "0 n (%)"},
      {"measurement": "TEAE Gamma-glutamyltransferase increased", "setting": "Cohort 4A, 100 mg BIW, N = 50", "result": "4 (8.0%) n (%)"},
      {"measurement": "TEAE Generalized oedema", "setting": "Cohort 4A, 100 mg BIW, N = 50", "result": "1 (2.0%) n (%)"},
      {"measurement": "TEAE Hyperbilirubinaemia", "setting": "Cohort 4A, 100 mg BIW, N = 50", "result": "3 (6.0%) n (%)"},
      {"measurement": "TEAE Hyperglycaemia", "setting": "Cohort 4A, 100 mg BIW, N = 50", "result": "9 (18.0%) n (%)"},
      {"measurement": "TEAE Hyperkalemia", "setting": "Cohort 4A, 100 mg BIW, N = 50", "result": "3 (6.0%) n (%)"},
      {"measurement": "TEAE Hypocalcaemia", "setting": "Cohort 4A, 100 mg BIW, N = 50", "result": "2 (4.0%) n (%)"},
      {"measurement": "TEAE Hypokalaemia", "setting": "Cohort 4A, 100 mg BIW, N = 50", "result": "8 (16.0%) n (%)"},
      {"measurement": "TEAE Hyponatraemia", "setting": "Cohort 4A, 100 mg BIW, N = 50", "result": "1 (2.0%) n (%)"},
      {"measurement": "TEAE Increased leukocytosis", "setting": "Cohort 4A, 100 mg BIW, N = 50", "result": "2 (4.0%) n (%)"},
      {"measurement": "TEAE Insomnia", "setting": "Cohort 4A, 100 mg BIW, N = 50", "result": "9 (18.0%) n (%)"},
      {"measurement": "TEAE Liver function test abnormal", "setting": "Cohort 4A, 100 mg BIW, N = 50", "result": "2 (4.0%) n (%)"},
      {"measurement": "TEAE Malnutrition", "setting": "Cohort 4A, 100 mg BIW, N = 50", "result": "1 (2.0%) n (%)"},
      {"measurement": "TEAE Nausea", "setting": "Cohort 4A, 100 mg BIW, N = 50", "result": "17 (34.0%) n (%)"},
      {"measurement": "TEAE Neutropenia", "setting": "Cohort 4A, 100 mg BIW, N = 50", "result": "10 (20.0%) n (%)"},
      {"measurement": "TEAE Oedema peripheral", "setting": "Cohort 4A, 100 mg BIW, N = 50", "result": "8 (16.0%) n (%)"},
      {"measurement": "TEAE Oral Candidiasis", "setting": "Cohort 4A, 100 mg BIW, N = 50", "result": "6 (12.0%) n (%)"},
      {"measurement": "TEAE Pneumonia", "setting": "Cohort 4A, 100 mg BIW, N = 50", "result": "5 (10.0%) n (%)"},
      {"measurement": "TEAE Pyrexia", "setting": "Cohort 4A, 100 mg BIW, N = 50", "result": "10 (20.0%) n (%)"},
      {"measurement": "TEAE Recurrent flatulence", "setting": "Cohort 4A, 100 mg BIW, N = 50", "result": "3 (6.0%) n (%)"},
      {"measurement": "TEAE Renal Failure", "setting": "Cohort 4A, 100 mg BIW, N = 50", "result": "5 (10.0%) n (%)"},
      {"measurement": "TEAE Staphylococcal Bacteremia", "setting": "Cohort 4A, 100 mg BIW, N = 50", "result": "6 (12.0%) n (%)"},
      {"measurement": "TEAE Thrombocytopenia", "setting": "Cohort 4A, 100 mg BIW, N = 50", "result": "7 (14.0%) n (%)"},
      {"measurement": "TEAE Tremor", "setting": "Cohort 4A, 100 mg BIW, N = 50", "result": "1 (2.0%) n (%)"},
      {"measurement": "TEAE Vomiting", "setting": "Cohort 4A, 100 mg BIW, N = 50", "result": "22 (44.0%) n (%)"},
      {"measurement": "Vomiting leading to study drug withdrawal", "setting": "Cohort 4A, 100 mg BIW, N = 50", "result": "1 (2.0%)"},
      {"measurement": "All AEs, Grade 5 (deaths)", "setting": "Cohort 4A, 100 mg BIW, N = 50, entire study duration", "result": "5 (10.0%)"},
      {"measurement": "Subjects completed treatment", "setting": "[1]", "result": "30 (60.0%) n (%)"},
      {"measurement": "Subjects who permanently discontinued treatment", "setting": "[1]", "result": "20 (40.0%) n (%)"},
      {"measurement": "Abnormal ALT >3-5x ULN, Any Time Between Week 2 and Week 10, subjects", "setting": "Cohort 4A, >3.0 mg/kg/wk", "result": "4 (40.0%)"},
      {"measurement": "Abnormal ALT >3-5x ULN, Screening, subjects", "setting": "Cohort 4A, >3.0 mg/kg/wk", "result": 0},
      {"measurement": "Abnormal ALT >5-10x ULN, Any Time Between Week 2 and Week 10, subjects", "setting": "Cohort 4A, >3.0 mg/kg/wk", "result": "1 (10.0%)"},
      {"measurement": "Abnormal ALT >5-10x ULN, Screening, subjects", "setting": "Cohort 4A, >3.0 mg/kg/wk", "result": 0},
      {"measurement": "Abnormal ALT >10-20x ULN, Any Time Between Week 2 and Week 10, subjects", "setting": "Cohort 4A, >3.0 mg/kg/wk", "result": 0},
      {"measurement": "Abnormal ALT >10-20x ULN, Screening, subjects", "setting": "Cohort 4A, >3.0 mg/kg/wk", "result": 0},
      {"measurement": "Abnormal ALT >20x ULN, Any Time Between Week 2 and Week 10, subjects", "setting": "Cohort 4A, >3.0 mg/kg/wk", "result": "1 (10.0%)"},
      {"measurement": "Abnormal ALT >20x ULN, Screening, subjects", "setting": "Cohort 4A, >3.0 mg/kg/wk", "result": 0},
      {"measurement": "Abnormal ALT >3-5x ULN, Any Time Between Week 2 and Week 10, subjects", "setting": "Cohort 4A, ≦3.0 mg/kg/wk", "result": "6 (15.0%)"},
      {"measurement": "Abnormal ALT >3-5x ULN, Screening, subjects", "setting": "Cohort 4A, ≦3.0 mg/kg/wk", "result": "1 (2.8%)"},
      {"measurement": "Abnormal ALT >5-10x ULN, Any Time Between Week 2 and Week 10, subjects", "setting": "Cohort 4A, ≦3.0 mg/kg/wk", "result": "3 (7.5%)"},
      {"measurement": "Abnormal ALT >5-10x ULN, Screening, subjects", "setting": "Cohort 4A, ≦3.0 mg/kg/wk", "result": "1 (2.8%)"},
      {"measurement": "Abnormal ALT >10-20x ULN, Any Time Between Week 2 and Week 10, subjects", "setting": "Cohort 4A, ≦3.0 mg/kg/wk", "result": "1 (2.5%)"},
      {"measurement": "Abnormal ALT >10-20x ULN, Screening, subjects", "setting": "Cohort 4A, ≦3.0 mg/kg/wk", "result": "1 (2.8%)"},
      {"measurement": "Abnormal ALT >20x ULN, Any Time Between Week 2 and Week 10, subjects", "setting": "Cohort 4A, ≦3.0 mg/kg/wk", "result": 0},
      {"measurement": "Abnormal ALT >20x ULN, Screening, subjects", "setting": "Cohort 4A, ≦3.0 mg/kg/wk", "result": 0},
      {"measurement": "Grade of hepatobiliary AE cholecystitis, subject 4058", "setting": "Cohort 4a", "result": 3},
      {"measurement": "Grade of hepatobiliary AE hyperbilirubinemia, subject 4080", "setting": "Cohort 4a", "result": 1},
      {"measurement": "Grade of hepatobiliary AE hyperbilirubinemia, subject 4090", "setting": "Cohort 4a", "result": 2},
      {"measurement": "Grade of hepatobiliary AE worsening hyperbilirubinemia, subject 4109", "setting": "Cohort 4a", "result": 1},
      {"measurement": "Outcome of hepatobiliary AE cholecystitis, subject 4058", "setting": "Cohort 4a", "result": "recovered/resolved"}
    ]}
  ]
}
